From patent US5843889A, “Glycopeptide antibiotic derivatives” (Eli Lilly and Company, priority 1997, dated 1998)
In brackets after ≈: the same amount, converted by molar mass.

Experiments:
Assay in all cases: MIC, standard broth micro-dilution assay
Assay type in all cases: cell-based
Entercoccus faecalis 276 = test system: Entercoccus faecalis 276
Procedure: (§1) The formula I compounds have in vitro and in vivo activity against Gram-positive pathogenic bacteria. The MIC's were determined using a standard broth micro-dilution assay.

[1] = test system: Entercoccus gallinarum 245
Procedure: as §1

[2] = test system: Entercoccus faecalis 2041
Procedure: as §1

Row | Compound | MIC (Entercoccus faecalis 276) | MIC [1] | MIC [2]
1 | CNC(CC(C)C)C(=O)NC1C(=O)NC(CC(N)=O)C(=O)NC2C(=O)NC3C(=O)NC(C(=O)NC(C(=O)O)c4cc(O)cc(O)c4-c4cc3ccc4O)C(OC3CC(C)(N)C(O)C(C)O3)c3ccc(c(Cl)c3)Oc3cc2cc(c3OC2OC(CO)C(O)C(O)C2OC2CC(C)(NCCCCCCCCCC#Cc3ccccc3)C(O)C(C)O2)Oc2ccc(cc2Cl)C1O (stereo not drawn) [Compound 236, 11-phenyl-10-undecynyl] | 2 µg/mL (≈ 1.1 µM) | 4 µg/mL (≈ 2.2 µM) | 1 µg/mL (≈ 0.55 µM)
2 | CNC(CC(C)C)C(=O)NC1C(=O)NC(CC(N)=O)C(=O)NC2C(=O)NC3C(=O)NC(C(=O)NC(C(=O)O)c4cc(O)cc(O)c4-c4cc3ccc4O)C(OC3CC(C)(N)C(O)C(C)O3)c3ccc(c(Cl)c3)Oc3cc2cc(c3OC2OC(CO)C(O)C(O)C2OC2CC(C)(NCc3ccc(C)c(C)c3)C(O)C(C)O2)Oc2ccc(cc2Cl)C1O (stereo not drawn) [Compound 76, 3,4-dimethylbenzyl] | ≤ 0.06 µg/mL | 4 µg/mL (≈ 2.34 µM) | ≤ 0.06 µg/mL
3 | CNC(CC(C)C)C(=O)NC1C(=O)NC(CC(N)=O)C(=O)NC2C(=O)NC3C(=O)NC(C(=O)NC(C(=O)O)c4cc(O)cc(O)c4-c4cc3ccc4O)C(OC3CC(C)(N)C(O)C(C)O3)c3ccc(c(Cl)c3)Oc3cc2cc(c3OC2OC(CO)C(O)C(O)C2OC2CC(C)(NCc3ccc(OS(C)(=O)=O)cc3)C(O)C(C)O2)Oc2ccc(cc2Cl)C1O (stereo not drawn) [Compound 149, 4-methylsulfonyloxybenzyl] | ≤ 0.06 µg/mL | 16 µg/mL (≈ 9.01 µM) | ≤ 0.06 µg/mL
4 | CNC(CC(C)C)C(=O)NC1C(=O)NC(CC(N)=O)C(=O)NC2C(=O)NC3C(=O)NC(C(=O)NC(C(=O)O)c4cc(O)cc(O)c4-c4cc3ccc4O)C(OC3CC(C)(N)C(O)C(C)O3)c3ccc(c(Cl)c3)Oc3cc2cc(c3OC2OC(CO)C(O)C(O)C2OC2CC(C)(NCc3cccc(OC(C)=O)c3)C(O)C(C)O2)Oc2ccc(cc2Cl)C1O (stereo not drawn) [Compound 77, 3-acetoxybenzyl] | 0.25 µg/mL (≈ 0.144 µM) | 0.25 µg/mL (≈ 0.144 µM) | 0.25 µg/mL (≈ 0.144 µM)
5 | CCCCCCCC#Cc1ccc(CN[C@@]2(C)C[C@H](O[C@H]3[C@H](Oc4c5cc6cc4Oc4ccc(cc4Cl)[C@@H](O[C@H]4C[C@](C)(N)[C@@H](O)[C@H](C)O4)[C@@H]4NC(=O)[C@H](NC(=O)[C@@H]6NC(=O)[C@H](CC(N)=O)NC(=O)[C@H](NC(=O)[C@@H](CC(C)C)NC)[C@H](O)c6ccc(c(Cl)c6)O5)c5ccc(O)c(c5)-c5c(O)cc(O)cc5[C@@H](C(=O)O)NC4=O)O[C@H](CO)[C@@H](O)[C@@H]3O)O[C@@H](C)[C@@H]2O)cc1 [Compound 232, 4-[1-nonynyl]benzyl] | 8 µg/mL (≈ 4.43 µM) | 32 µg/mL (≈ 17.7 µM) | 2 µg/mL (≈ 1.11 µM)
6 | CNC(CC(C)C)C(=O)NC1C(=O)NC(CC(N)=O)C(=O)NC2C(=O)NC3C(=O)NC(C(=O)NC(C(=O)O)c4cc(O)cc(O)c4-c4cc3ccc4O)C(OC3CC(C)(N)C(O)C(C)O3)c3ccc(c(Cl)c3)Oc3cc2cc(c3OC2OC(CO)C(O)C(O)C2OC2CC(C)(NCCc3ccc(OCc4ccccc4)cc3)C(O)C(C)O2)Oc2ccc(cc2Cl)C1O (stereo not drawn) [Compound 68, 4-benzyloxyphenethyl] | ≤ 0.06 µg/mL | 4 µg/mL (≈ 2.22 µM) | ≤ 0.06 µg/mL
7 | CNC(CC(C)C)C(=O)NC1C(=O)NC(CC(N)=O)C(=O)NC2C(=O)NC3C(=O)NC(C(=O)NC(C(=O)O)c4cc(O)cc(O)c4-c4cc3ccc4O)C(OC3CC(C)(N)C(O)C(C)O3)c3ccc(c(Cl)c3)Oc3cc2cc(c3OC2OC(CO)C(O)C(O)C2OC2CC(C)(NCc3ccc(-c4ccc(Cl)cc4)cc3)C(O)C(C)O2)Oc2ccc(cc2Cl)C1O (stereo not drawn) [Compound 229, 4-[4-chlorophenyl]benzyl-A82846B] | 0.25 µg/mL (≈ 0.139 µM) | 2 µg/mL (≈ 1.12 µM) | ≤ 0.06 µg/mL
8 | CNC(CC(C)C)C(=O)NC1C(=O)NC(CC(N)=O)C(=O)NC2C(=O)NC3C(=O)NC(C(=O)NC(C(=O)O)c4cc(O)cc(O)c4-c4cc3ccc4O)C(OC3CC(C)(N)C(O)C(C)O3)c3ccc(c(Cl)c3)Oc3cc2cc(c3OC2OC(CO)C(O)C(O)C2OC2CC(C)(NCc3c4ccccc4c(C)c4ccccc34)C(O)C(C)O2)Oc2ccc(cc2Cl)C1O (stereo not drawn) [Compound 17, 9-[10-methyl]anthranylmethyl] | 0.5 µg/mL (≈ 0.278 µM) | 0.5 µg/mL (≈ 0.278 µM) | 0.25 µg/mL (≈ 0.139 µM)
9 | CNC(CC(C)C)C(=O)NC1C(=O)NC(CC(N)=O)C(=O)NC2C(=O)NC3C(=O)NC(C(=O)NC(C(=O)O)c4cc(O)cc(O)c4-c4cc3ccc4O)C(OC3CC(C)(N)C(O)C(C)O3)c3ccc(c(Cl)c3)Oc3cc2cc(c3OC2OC(CO)C(O)C(O)C2OC2CC(C)(NCc3ccc(OS(=O)(=O)c4c(C)c(C)c(C)c(C)c4C)cc3)C(O)C(C)O2)Oc2ccc(cc2Cl)C1O (stereo not drawn) [Compound 173, 4-[[2,3,4,5,6-pentamethyl]phenylsulfonyloxy]benzyl] | 2 µg/mL (≈ 1.05 µM) | 4 µg/mL (≈ 2.1 µM) | 0.5 µg/mL (≈ 0.262 µM)
10 | CNC(CC(C)C)C(=O)NC1C(=O)NC(CC(N)=O)C(=O)NC2C(=O)NC3C(=O)NC(C(=O)NC(C(=O)O)c4cc(O)cc(O)c4-c4cc3ccc4O)C(OC3CC(C)(N)C(O)C(C)O3)c3ccc(c(Cl)c3)Oc3cc2cc(c3OC2OC(CO)C(O)C(O)C2OC2CC(C)(NCCCCCCCCCCCCc3ccccc3)C(O)C(C)O2)Oc2ccc(cc2Cl)C1O (stereo not drawn) [Compound 234, 12-phenyldodecyl] | 4 µg/mL (≈ 2.18 µM) | 16 µg/mL (≈ 8.71 µM) | 0.5 µg/mL (≈ 0.272 µM)

Other lines, results leading:

Row | MIC (Entercoccus faecalis 276) | MIC [1] | MIC [2] | Compound
11 | ≤ 0.06 µg/mL | 2 µg/mL (≈ 1.08 µM) | ≤ 0.06 µg/mL | CNC(CC(C)C)C(=O)NC1C(=O)NC(CC(N)=O)C(=O)NC2C(=O)NC3C(=O)NC(C(=O)NC(C(=O)O)c4cc(O)cc(O)c4-c4cc3ccc4O)C(OC3CC(C)(N)C(O)C(C)O3)c3ccc(c(Cl)c3)Oc3cc2cc(c3OC2OC(CO)C(O)C(O)C2OC2CC(C)(NCc3ccc(-c4ccccc4[N+](=O)[O-])c([N+](=O)[O-])c3)C(O)C(C)O2)Oc2ccc(cc2Cl)C1O (stereo not drawn) [Compound 213, 3-nitro-4-[2-nitrophenyl]benzyl]
12 | ≤ 0.06 µg/mL | 0.5 µg/mL (≈ 0.282 µM) | ≤ 0.06 µg/mL | CNC(CC(C)C)C(=O)NC1C(=O)NC(CC(N)=O)C(=O)NC2C(=O)NC3C(=O)NC(C(=O)NC(C(=O)O)c4cc(O)cc(O)c4-c4cc3ccc4O)C(OC3CC(C)(N)C(O)C(C)O3)c3ccc(c(Cl)c3)Oc3cc2cc(c3OC2OC(CO)C(O)C(O)C2OC2CC(C)(NCc3ccc(-c4cccc(C)c4)cc3)C(O)C(C)O2)Oc2ccc(cc2Cl)C1O (stereo not drawn) [Compound 224, 4-[3-methylphenyl]benzyl]
13 | 0.25 µg/mL (≈ 0.14 µM) | 1 µg/mL (≈ 0.561 µM) | ≤ 0.06 µg/mL | CNC(CC(C)C)C(=O)NC1C(=O)NC(CC(N)=O)C(=O)NC2C(=O)NC3C(=O)NC(C(=O)NC(C(=O)O)c4cc(O)cc(O)c4-c4cc3ccc4O)C(OC3CC(C)(N)C(O)C(C)O3)c3ccc(c(Cl)c3)Oc3cc2cc(c3OC2OC(CO)C(O)C(O)C2OC2CC(C)(NCCCCCCCCBr)C(O)C(C)O2)Oc2ccc(cc2Cl)C1O (stereo not drawn) [Compound 198, 8-bromooctyl]
14 | 0.5 µg/mL (≈ 0.271 µM) | 2 µg/mL (≈ 1.09 µM) | 0.25 µg/mL (≈ 0.136 µM) | CNC(CC(C)C)C(=O)NC1C(=O)NC(CC(N)=O)C(=O)NC2C(=O)NC3C(=O)NC(C(=O)NC(C(=O)O)c4cc(O)cc(O)c4-c4cc3ccc4O)C(OC3CC(C)(N)C(O)C(C)O3)c3ccc(c(Cl)c3)Oc3cc2cc(c3OC2OC(CO)C(O)C(O)C2OC2CC(C)(NCc3cccc(Oc4cccc(C(F)(F)F)c4)c3)C(O)C(C)O2)Oc2ccc(cc2Cl)C1O (stereo not drawn) [Compound 203]
15 | 0.5 µg/mL (≈ 0.274 µM) | 2 µg/mL (≈ 1.09 µM) | ≤ 0.06 µg/mL | CNC(CC(C)C)C(=O)NC1C(=O)NC(CC(N)=O)C(=O)NC2C(=O)NC3C(=O)NC(C(=O)NC(C(=O)O)c4cc(O)cc(O)c4-c4cc3ccc4O)C(OC3CC(C)(N)C(O)C(C)O3)c3ccc(c(Cl)c3)Oc3cc2cc(c3OC2OC(CO)C(O)C(O)C2OC2CC(C)(NCCCCCCCCOc3ccc(OC)cc3)C(O)C(C)O2)Oc2ccc(cc2Cl)C1O (stereo not drawn) [Compound 200, 8-[4-methoxyphenoxy]octyl]
16 | 0.5 µg/mL (≈ 0.281 µM) | 1 µg/mL (≈ 0.562 µM) | ≤ 0.06 µg/mL | CNC(CC(C)C)C(=O)NC1C(=O)NC(CC(N)=O)C(=O)NC2C(=O)NC3C(=O)NC(C(=O)NC(C(=O)O)c4cc(O)cc(O)c4-c4cc3ccc4O)C(OC3CC(C)(N)C(O)C(C)O3)c3ccc(c(Cl)c3)Oc3cc2cc(c3OC2OC(CO)C(O)C(O)C2OC2CC(C)(NCc3cccc(OC4CCCCC4)c3)C(O)C(C)O2)Oc2ccc(cc2Cl)C1O (stereo not drawn) [Compound 153]
17 | ≤ 0.06 µg/mL | 2 µg/mL (≈ 1.14 µM) | ≤ 0.06 µg/mL | CN[C@H](CC(C)C)C(=O)N[C@H]1C(=O)N[C@@H](CC(N)=O)C(=O)N[C@H]2C(=O)N[C@H]3C(=O)N[C@H](C(=O)N[C@H](C(=O)O)c4cc(O)cc(O)c4-c4cc3ccc4O)[C@H](O[C@H]3C[C@](C)(N)[C@@H](O)[C@H](C)O3)c3ccc(c(Cl)c3)Oc3cc2cc(c3O[C@@H]2O[C@H](CO)[C@@H](O)[C@H](O)[C@H]2O[C@H]2C[C@](C)(NCc3cccc(-c4ccccc4)c3)[C@@H](O)[C@H](C)O2)Oc2ccc(cc2Cl)[C@H]1O [Compound 91, 3-phenylbenzyl]
18 | 0.5 µg/mL (≈ 0.28 µM) | 4 µg/mL (≈ 2.24 µM) | ≤ 0.06 µg/mL | CNC(CC(C)C)C(=O)NC1C(=O)NC(CC(N)=O)C(=O)NC2C(=O)NC3C(=O)NC(C(=O)NC(C(=O)O)c4cc(O)cc(O)c4-c4cc3ccc4O)C(OC3CC(C)(N)C(O)C(C)O3)c3ccc(c(Cl)c3)Oc3cc2cc(c3OC2OC(CO)C(O)C(O)C2OC2CC(C)(NCCc3cccc(Oc4ccccc4)c3)C(O)C(C)O2)Oc2ccc(cc2Cl)C1O (stereo not drawn) [Compound 62, 3-phenoxyphenethyl]
19 | 2 µg/mL (≈ 1.09 µM) | 12 µg/mL (≈ 6.52 µM) | ≤ 0.06 µg/mL | CNC(CC(C)C)C(=O)NC1C(=O)NC(CC(N)=O)C(=O)NC2C(=O)NC3C(=O)NC(C(=O)NC(C(=O)O)c4cc(O)cc(O)c4-c4cc3ccc4O)C(OC3CC(C)(N)C(O)C(C)O3)c3ccc(c(Cl)c3)Oc3cc2cc(c3OC2OC(CO)C(O)C(O)C2OC2CC(C)(NCc3cccc(OCc4ccc5ccccc5n4)c3)C(O)C(C)O2)Oc2ccc(cc2Cl)C1O (stereo not drawn) [Compound 125, 3-[2-quinoylmethoxy]benzyl]
